The source of these data is US20100311677A1, “Active Ingredient Combinations Having Insecticidal and Acaricidal Properties” (Bayer CropScience AG, priority 2007, published 2010).

In assay [1] the test system is Spodoptera frugiperda. Nature of the assay: Spodoptera frugiperda larvae test (Example F), sprayed cabbage leaves. The class given is in vivo. An excerpt: Spodoptera frugiperda Larvae Test
Assay [2] has as its system Phaedon cochleariae. The experiment in a line: Phaedon cochleariae larvae test (Example E), sprayed cabbage leaves. The settings on record: for Kill in % after 6d / Kill in % after 2d: alone.
Assay [3] relates to Myzus persicae. The experiment in a line: Myzus persicae test (Example C), sprayed cabbage leaves. The settings on record: for pest or weed control at 0.032 g/ha / pest or weed control at 0.8 g/ha / pest or weed control at 0.16 g/ha / pest or weed control at 4 g/ha: Myzus persicae, 144 h, read-out: Kill in % after 6d. The class given is in vivo.
Assay [4] has as its system Tetranychus urticae. Nature of the assay: Tetranychus urticae test (OP-resistant/spray treatment) (Example G), bean leaf disks. In kind it is in vivo. The settings on record: for pest or weed control at 100 g/ha / pest or weed control at 0.8 g/ha / pest or weed control at 4 g/ha / pest or weed control at 20 g/ha: Tetranychus urticae, foliar, 144 h, read-out: Kill in % after 6 d. How it is done:
Tetranychus urticae Test (OP-Resistant/Spray Treatment)
After the desired period of time, the activity in % is determined.

In assay [5] the test system is Bemisia tabaci. The experiment in a line: Bemisia tabaci test (Example B), sprayed cotton leaves, larval stages. In kind it is in vivo. The settings on record: 4 g/ha, alone.
Assay [6] deals with Nilaparvata lugens. Nature of the assay: Nilaparvata lugens test (Example D), sprayed rice plants. The class given is in vivo. Conditions: 0.8 g/ha, alone.
For assay [7], the system named is Aphis gossypii. The experiment in a line: Aphis gossypii test (Example A), sprayed cotton leaves. In kind it is in vivo. Conditions: 0.16 ppm, alone.
Where [8] appears, read: Spodoptera frugiperda, 144 h, alone, after 6 d, read-out: Kill in % after 6d.
Where [9] appears, read: Phaedon cochleariae, in Brassica oleracea, 144 h, read-out: Kill in % after 6d.
Where [10] appears, read: active compound alone, after 6 d.
Setting [11] is: Spodoptera frugiperda, 144 h, 0.8 g/ha, alone, after 6 d, read-out: Kill in % after 6d.
Setting [12] is: active compound alone, 4 g/ha, after 6 d.
Where [13] appears, read: active compound alone, 20 g/ha, after 6 d.

Where two headings read alike, the source gives them in different places.

Regarding `CC1(C)C(/C=C(\Cl)C(F)(F)F)C1C(=O)OC(C#N)c1cccc(Oc2ccccc2)c1` [L-cyhalothrin (12a), lambda-cyhalothrin], the pest or weed control at 4 g/ha in assay [1] (setting [8]) is 50%. Besides, the pest or weed control at 0.16 g/ha in assay [2] (setting [9]) was 0%. Besides, in assay [3] (alone, after 6 d), the pest or weed control at 0.032 g/ha was 0%.

For the compound `COP(=O)(NC(C)=O)SC` (centres unmarked) [acephate (112), acephate], the pest or weed control at 20 g/ha in assay [1] (Spodoptera frugiperda, 144 h, read-out: Kill in % after 6d) was 33%. Besides, the pest or weed control at 100 g/ha in assay [4] was 0%. The pest or weed control at 0.8 g/ha in assay [3] amounted to 0%.

Consider `CC1(C)C(C=C(Cl)Cl)C1C(=O)OC(C#N)c1cccc(Oc2ccccc2)c1` (stereo not drawn) [alpha-cypermethrin (2), alpha-cypermethrin], for which the “Kill in % after 2d” value in assay [1] (0.8 g/ha, alone) was 33%. Moreover, the pest or weed control at 0.8 g/ha in assay [4] (setting [10]) and in assay [2] (setting [9]) was 0% throughout. Moreover, in assay [3] (0.16 g/ha, alone, after 6 d), the pest or weed control at 0.16 g/ha came out at 0%.

With `Cc1c(COC(=O)C2C(/C=C(\Cl)C(F)(F)F)C2(C)C)cccc1-c1ccccc1` (centres unmarked) [bifenthrin (18), bifenthrin], the pest or weed control at 0.8 g/ha in assay [1] (setting [11]) was found to be 0%.

For the compound `CC(C)N1C(=O)N(c2ccccc2)CS/C1=N\C(C)(C)C` [buprofezin (42), buprofezin], the “Kill in % after 2d” value in assay [4] (100 g/ha, alone, after 2 d) is recorded as 0%. Besides, in assay [2] (setting [9]), the pest or weed control at 100 g/ha worked out at 0%. For the same compound, in assay [5], the “Kill in % after 10d” value is recorded as 30%. The “Kill in % after 6d” value in assay [6] turned out to be 10%. Moreover, in assay [3] (4 g/ha, alone), the “Kill in % after 1d” value is given as 0%.

Consider `Cc1cc(C(F)(C(F)(F)F)C(F)(F)F)ccc1NC(=O)c1cccc(Cl)c1C(=O)N[C@@H](C)CS(C)(=O)=O` [compound (55)], for which the pest or weed control at 0.8 g/ha stood at 50% in assay [1] (setting [11]) and 0% in assay [2] (setting [9]). The pest or weed control at 4 g/ha in assay [4] (setting [12]) was found to be 0%. Further, the pest or weed control at 0.16 g/ha in assay [3] (0.16 g/ha, alone, after 6 d) amounted to 0%.

As for `CC1(C)C(C=C(Cl)Cl)C1C(=O)OC(C#N)c1cccc(Oc2ccccc2)c1` (centres unmarked) [cypermethrin (5), cypermethrin], in assay [1] (setting [11]), the pest or weed control at 0.8 g/ha was determined as 17%. Moreover, the pest or weed control at 4 g/ha amounted to 0% in assay [4] (setting [12]) and 67% in assay [2] (setting [9]).

Turning to `CC(C)C(C(=O)OC(C#N)c1cccc(Oc2ccccc2)c1)c1ccc(Cl)cc1` (centres unmarked) [esfenvalerate (7), esfenvalerate], the pest or weed control at 0.8 g/ha in assay [4] (setting [10]) came to 0%. Besides, the pest or weed control at 4 g/ha in assay [2] (setting [9]) was 83%. Besides, the “Kill in % after 1d” value in assay [3] (0.16 g/ha, alone) is 0%.

In the case of `Cc1cc(C(F)(C(F)(F)F)C(F)(F)F)ccc1NC(=O)c1cccc(I)c1C(=O)NC(C)(C)CS(C)(=O)=O` [flubendiamide (54), flubendiamide], the “Kill in % after 6d” value in assay [1] (0.8 g/ha, alone, after 6 d) is listed as 0%; in assay [4] (setting [13]), 0%; in assay [2] (20 g/ha) it was 0%; in assay [3] (0.8 g/ha, alone, after 6 d), 0%.

Consider `CC1(C)[C@H](/C=C(\Cl)C(F)(F)F)[C@@H]1C(=O)O[C@H](C#N)c1cccc(Oc2ccccc2)c1` [gamma-cyhalothrin (12b), gamma-cyhalothrin], for which the “Kill in % after 2d” value in assay [1] (0.032 g/ha, alone) is on record as 5%. Also, the “Kill in % after 6d” value in assay [7] came to 0%.

Consider `COC(=O)N(C(=O)N1COC2(C(=O)OC)Cc3cc(Cl)ccc3C2=N1)c1ccc(OC(F)(F)F)cc1` (centres unmarked) [indoxacarb (94), indoxacarb], for which the pest or weed control at 4 g/ha in assay [1] (setting [8]) came to 0%; in assay [3] (4 g/ha, alone, after 6 d) it was 0%. In addition, in assay [4] (active compound alone, 100 g/ha, after 6 d), the pest or weed control at 100 g/ha stood at 0%.

`O=C(NC(=O)c1c(F)cccc1F)Nc1cc(Cl)c(OC(F)(F)C(F)C(F)(F)F)cc1Cl` (centres unmarked) [lufenuron (34), lufenuron]: the “Kill in % after 2d” value in assay [1] (100 g/ha, alone) was 0%. Moreover, in assay [4] (setting [13]), the pest or weed control at 20 g/ha turned out to be 0%. Further, in assay [3] (0.8 g/ha, alone, after 6 d), the pest or weed control at 0.8 g/ha stood at 0%.

For `COP(N)(=O)SC` (centres unmarked) [methamidophos (113), methamidophos], the “Kill in % after 2d” value in assay [1] (100 g/ha, alone) stood at 67%; in assay [2] (100 g/ha) it was 0%. Moreover, the pest or weed control at 20 g/ha in assay [4] (setting [13]) was 0%. In addition, in assay [3] (4 g/ha, alone, after 6 d), the pest or weed control at 4 g/ha is 0%.

For `CC1=NNC(=O)N(/N=C/c2cccnc2)C1` [pymetrozine (88), pymetrozine], in assay [4] (setting [13]), the pest or weed control at 20 g/ha was determined as 0%. Moreover, the pest or weed control at 100 g/ha in assay [2] (setting [9]) was 0%. Moreover, the “Kill in % after 1d” value in assay [3] (20 g/ha, alone) was 20%.

Turning to `CC(COc1ccc(Oc2ccccc2)cc1)Oc1ccccn1` (centres unmarked) [pyriproxifen (90), pyriproxyfen], the pest or weed control at 20 g/ha in assay [4] (setting [13]) was 0%. For the same compound, in assay [2] (setting [9]), the pest or weed control at 100 g/ha was found to be 0%. Also, the pest or weed control at 0.8 g/ha in assay [3] (0.8 g/ha, alone, after 6 d) was found to be 0%.

As to `CCOC(=O)OC1=C(c2cc(C)ccc2C)C(=O)N[C@]12CC[C@@H](OC)CC2` [spirotetramat (98), spirotetramat], the pest or weed control at 20 g/ha in assay [1] (Spodoptera frugiperda, 144 h, 20 g/ha, alone, after 6 d, read-out: Kill in % after 6d) worked out at 0%; in assay [2] (setting [9]) it was 50%. For the same compound, in assay [4] (setting [12]), the pest or weed control at 4 g/ha is 50%.

In the case of `N#C/N=C1\SCCN1Cc1ccc(Cl)nc1` [thiacloprid (28), thiacloprid], the pest or weed control at 0.8 g/ha in assay [4] (setting [10]) came to 0%. The “Kill in % after 2d” value in assay [2] (4 g/ha) was determined as 0%. In addition, the pest or weed control at 0.032 g/ha in assay [3] (alone, after 6 d) turned out to be 0%.

Take `CS/C(C)=N/OC(=O)N(C)SN(C)C(=O)O/N=C(\C)SC` [thiodicarb (111), thiodicarb]: in assay [1] (setting [8]), the pest or weed control at 4 g/ha came to 67%. For the same compound, the pest or weed control at 20 g/ha in assay [4] (setting [13]) worked out at 0%. For the same compound, in assay [2] (setting [9]), the pest or weed control at 100 g/ha amounted to 0%.

As to `O=C(NC(=O)c1ccccc1Cl)Nc1ccc(OC(F)(F)F)cc1` [triflumuron (36), triflumuron], the pest or weed control at 0.16 g/ha in assay [1] (Spodoptera frugiperda, 144 h, 0.16 g/ha, alone, after 6 d, read-out: Kill in % after 6d) stood at 0%. For the same compound, the pest or weed control at 20 g/ha in assay [4] (setting [13]) came out at 0%. Besides, in assay [2] (20 g/ha), the “Kill in % after 2d” value worked out at 17%. Moreover, in assay [3] (4 g/ha, alone, after 6 d), the pest or weed control at 4 g/ha worked out at 0%.

As for spinosad [spinosad (79)], the “Kill in % after 2d” value in assay [1] (0.8 g/ha, alone) turned out to be 0%. Further, the “Kill in % after 6d” value in assay [4] (setting [12]) is on record as 80%; in assay [2] (0.8 g/ha), 0%; in assay [3] (0.8 g/ha, alone, after 6 d), 0%.
